Here are results for one compound from ChEMBL document CHEMBL4145670, “A Bioactive Resveratrol Trimer from the Stem Bark of the Sri Lankan Endemic Plant Vateria copallifera” (J Nat Prod, 2018).

Assay [1] deals with Cholinesterase (Homo sapiens) (UniProt P06276). Particulars: 10 ug/ml.
Description: Inhibition of BChE (unknown origin) at 10 ug/ml using butyrylthiocholine iodide as substrate pretreated for 15 mins followed by substrate addition and measured by DTNB reagent based assay relative to control
The subject of another assay is HeLa. Nature of the assay: cells. Particulars: Homo sapiens, 48 h, read-out: GI.
Assay [2] is filed under the species Homo sapiens. Particulars: 44.1 uM.
Description: Inhibition of elastase (unknown origin) at 44.1 uM using N-succinyl-Ala-Ala-Ala-p-nitroanilide as substrate pretreated for 25 mins followed by substrate addition relative to control
Another assay deals with HepG2. As to the kind of experiment: cells. Particulars: Homo sapiens, HepG2, 48 h, read-out: GI.
Another assay has as its system SK-MEL-5. As to the kind of experiment: cells. Conditions: Homo sapiens, SK-MEL-5, 48 h, read-out: GI.
The test system of the next assay is MCF7. Nature of the assay: cells. Conditions: Homo sapiens, MCF7, 48 h, read-out: GI.
The target in assay [3] is Cholinesterase (Homo sapiens) (UniProt P06276). Particulars: 14.7 uM.
Description: Inhibition of BChE (unknown origin) at 14.7 uM using butyrylthiocholine iodide as substrate pretreated for 15 mins followed by substrate addition and measured by DTNB reagent based assay
The subject of the next assay is PC-12. As to the kind of experiment: cells. Conditions: Rattus norvegicus, PC-12, 3 h, read-out: Activity.
For assay [4], the species on record is Homo sapiens. Conditions: 1.5 uM.
Description: Inhibition of GST (unknown origin) at 1.5 uM using CDNB as substrate relative to control
A further assay has as its system HCT-116. As to the kind of experiment: cells. Conditions: Homo sapiens, HCT-116, 48 h, read-out: GI.
The species named for assay [5] is Homo sapiens. Particulars: 147.2 uM.
Description: Inhibition of alpha-chymotrypsin (unknown origin) at 147.2 uM using N-succinyl-L-phenylalanine-p-nitroanilide as substrate pretreated for 25 mins followed by substrate addition relative to control

Activity calls are given as the source filed them. No cut-off for these calls is given here. Bounds are passed on as bounds.

Sequence of Cholinesterase (Homo sapiens) (P06276 whole entry): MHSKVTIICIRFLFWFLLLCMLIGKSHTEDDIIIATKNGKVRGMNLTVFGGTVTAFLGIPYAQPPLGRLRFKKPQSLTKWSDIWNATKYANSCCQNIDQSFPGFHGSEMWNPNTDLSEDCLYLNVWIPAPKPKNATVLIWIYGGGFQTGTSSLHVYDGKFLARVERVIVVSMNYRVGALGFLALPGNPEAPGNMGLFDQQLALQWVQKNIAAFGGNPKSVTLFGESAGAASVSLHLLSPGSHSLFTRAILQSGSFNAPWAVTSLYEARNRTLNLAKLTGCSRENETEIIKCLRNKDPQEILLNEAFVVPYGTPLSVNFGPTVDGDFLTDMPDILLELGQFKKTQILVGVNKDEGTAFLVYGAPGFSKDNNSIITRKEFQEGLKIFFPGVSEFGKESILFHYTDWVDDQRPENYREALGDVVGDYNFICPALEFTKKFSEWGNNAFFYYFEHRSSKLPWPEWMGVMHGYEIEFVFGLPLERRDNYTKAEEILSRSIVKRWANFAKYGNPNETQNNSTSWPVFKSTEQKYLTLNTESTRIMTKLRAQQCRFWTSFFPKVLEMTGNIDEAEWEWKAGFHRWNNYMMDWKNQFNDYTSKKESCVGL
Description for HCT-116: Growth inhibition of human HCT116 cells at 147.2 uM after 48 hrs by methylene blue staining based assay relative to control
Description for HeLa: Growth inhibition of human HeLa cells at 147.2 uM after 48 hrs by methylene blue staining based assay relative to control
Description for HepG2: Growth inhibition of human HepG2 cells at 147.2 uM after 48 hrs by methylene blue staining based assay relative to control
Description for MCF7: Growth inhibition of human MCF7 cells at 147.2 uM after 48 hrs by methylene blue staining based assay relative to control
Description for SK-MEL-5: Growth inhibition of human SK-MEL-5 cells at 147.2 uM after 48 hrs by methylene blue staining based assay relative to control

Turning to `Oc1ccc(-c2oc3cc(O)c4c5c3c2-c2cc(O)cc(O)c2[C@H](c2ccc(O)cc2)[C@@H]5[C@H](c2ccc(O)cc2)[C@@H]4c2cc(O)cc(O)c2)cc1`, the inhibition in [1] came out at 19.7%; in the assay filed under Homo sapiens [2], 10.2%; in the assay filed under Homo sapiens [4], 34.7%; in the assay filed under Homo sapiens [5], 55.7%. Besides, the inhibition of growth at 147.2 µM in the assay with HeLa, in the assay with HepG2, in the assay with SK-MEL-5, in the assay with MCF7 and in the assay with HCT-116 was under 50% each time. The inhibition result in assay [3] was “inactive”. In the assay with PC-12, the viability at 1.5 µM worked out at 88.3%.
